Measurements reported in patent US11426375B2, “Substituted bisphenyl butanoic ester derivatives as NEP inhibitors” (NOVARTIS AG, priority 2019, dated 2022).
Where two headings read alike, the source gives them in different places.

Legend:
[1] = set-up: species or system Cynomolgus Monkeys; settings: cynomolgus monkey, in vivo, po, 10 mg/kg
Protocol: A cross-over study design consisting of two groups with two animals per group was conducted to examine the pharmacokinetic properties of compound I-1 of the present disclosure.
Compound I-1 and AHU377 were administered to each group as follows: compound I-1 on Day 0 followed by AHU377 on Day 2 (Group 1), AHU377 on Day 0 followed by compound I-1 on Day 2 (Group 2). Each animal received a single 10 mg/kg (5 ml/kg) oral gavage dose of the specified study drug on the specified day. The animals were 2.5 to 3.5 years of age and weighed between 3.1 and 4.3 kg at the beginning of the study. Both compounds were formulated in 0.5% methylcellulose (400 cp) and 0.1% Tween 80 (w,v) in water. Blood samples for pharmacokinetics analysis were collected at t=0, 0.25, 0.5, 1, 2, 4, 8, 24 and 48 hours post dose on Day 0 and Day 2. Plasma was prepared by collecting whole blood samples into tubes containing K2EDTA and NaF (final concentrations: ˜1 mg/mL (K2EDTA) and ˜2 mg/mL (NaF)). These tubes were kept in an ice bath prior to centrifugation at approximately 2,000 rcf for 10 minutes at approximately 5° C. To each resultant plasma sample (target volume 200 μL), 4 μL of 50% phosphoric acid (v/v) was added.
(§1) [^13C4]-LBQ657 was added as an internal standard to the pharmacokinetic (PK) samples and calibration standards prior to analysis by LC-MS/MS. The LC-MS system consisted of an API6500+ mass spectrometer coupled to an Agilent 1290 HPLC system equipped with a CTC Pal autosampler. The mass spectrometer was operated in the positive ion mode.

[2] = set-up: species or system Sprague Dawley rats; settings: rat, in vivo, po, 10 mg/kg
Protocol: A parallel study design consisting of four groups with three animals per group was conducted to examine the pharmacokinetic properties of the compounds of the present disclosure.
The drugs were administered to each group are as follows: compound I-1 (Group 1), compound I-2 (Group 2), compound I-3 (Group 3), and AHU377 (sacubitril) (Group 4). Each animal received a single 10 mg/kg (5 ml/kg) oral gavage dose of the specified study drug. The animal weights ranged from […] at the beginning of the study. Compound I-1, compound I-2, compound I-3, and AHU377 were formulated in 0.5% methylcellulose (400 cp) and 0.1% Tween 80 (w,v) in water was used as the vehicle. Water bath sonication was applied to facilitate dispersing for all four study drugs. Blood samples for pharmacokinetics analysis were collected at t=0.25, 0.5, 1, 2, 4, 8, and 24 hours (±5%) post dose administration. Plasma was prepared by collecting whole blood samples into tubes containing EDTA and NaF (final concentrations: ˜1 mg/mL (K2EDTA) and ˜2 mg/mL (NaF)). These tubes were kept in an ice bath prior to centrifugation at approximately 2,000 rcf for 10 minutes at approximately 5° C. To each resultant plasma sample, 50% phosphoric acid (v/v) was added to achieve a final concentration of 1% (v,v).
as §1, with “mode with a TESI ion source.” for “mode.”

Q: Which “compound I-1 concentrations in plasma” value [1] does the source give for `CCOC(=O)[C@H](C)C[C@@H](Cc1ccc(-c2ccccc2)cc1)NC(=O)CCC(=O)N[C@@H](CC(C)C)C(=O)O` [Compound I-1, (4-(((2S,4R)-1-([1,1′-biphenyl]-4-yl)-5-ethoxy-4-methyl-5-oxopentan-2-yl)amino)-4-oxobutanoyl)-L-leucine] here?
A: Its value is “below the lower limit of quantitation”.

Q: And the tolerability [1]?
A: Its tolerability is “well tolerated”.

Q: What about the “relative bioavailability compared to AHU377 based on AUC values” ([1]; male) of the same molecule?
A: The value was 72%.

Q: What about the “relative bioavailability compared to AHU377 based on Cmax values” ([1]; male) of the same molecule?
A: Its value is 30%.

Q: And the LBQ657 concentration-time profile ([2]; male, Sprague-Dawley)?
A: The LBQ657 concentration-time profile was “flattened relative to AHU377”.

Q: And the “conversion to LBQ657” value ([2]; male, Sprague-Dawley)?
A: Its value is “nearly complete conversion to LBQ657”.

Q: And the “LBQ657 exposure (based on AUC values)” value [2]?
A: The value was “did not decrease relative to that of AHU377”.

Q: What about the tolerability [2] of the same molecule?
A: The tolerability was “very well tolerated”.
